Values joined by “and” are separate entries in the source; they are usually repeats but may differ in a detail not shown here. Identical values can stand only once. Inconclusive results and toxic doses are left out. How the source made its calls: active means survival T/C of 150% or more; inactive means T/C below 125% in these data.
Tested on: P388 leukemia ip, CD2F1 mice, survival T/C
Test: NCI In Vivo Anticancer Drug Screen. Data for tumor model P388 Leukemia (intraperitoneal) in CD2F1 (CDF1) mice
Details: endpoint: median survival time, higher = longer survival
In short: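 Mice carrying the transplanted tumor received test compound or vehicle. Survival was recorded in each group, and the value is the treated-group measurement divided by that of the vehicle-treated control group.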

[1] = dose: 60.0 mg/kg/injection, schedule: Q01DX005 (ip), vehicle: Klucel (hydroxypropylcellulose) (HPC)
[2] = dose: 120.0 mg/kg/injection, schedule: Q01DX005 (ip), vehicle: Klucel (hydroxypropylcellulose) (HPC)
[3] = dose: 50.0 mg/kg/injection, schedule: Q01DX009 (ip), vehicle: saline
[4] = dose: 100.0 mg/kg/injection, schedule: Q01DX009 (ip), vehicle: saline
[5] = dose: 50.0 mg/kg/injection, schedule: Q01DX005 (ip), vehicle: saline with Tween-80
[6] = dose: 100.0 mg/kg/injection, schedule: Q01DX005 (ip), vehicle: saline with Tween-80
[7] = dose: 200.0 mg/kg/injection, schedule: Q01DX005 (ip), vehicle: saline with Tween-80
[8] = dose: 60.0 mg/kg/injection, schedule: Q01DX005 (ip), vehicle: saline with Tween-80
[9] = dose: 120.0 mg/kg/injection, schedule: Q01DX005 (ip), vehicle: saline with Tween-80
[10] = dose: 240.0 mg/kg/injection, schedule: Q01DX005 (ip), vehicle: saline with Tween-80
[11] = dose: 50.0 mg/kg/injection, schedule: Q01DX005 (ip), vehicle: saline
[12] = dose: 100.0 mg/kg/injection, schedule: Q01DX005 (ip), vehicle: saline
[13] = dose: 200.0 mg/kg/injection, schedule: Q01DX005 (ip), vehicle: saline
[14] = dose: 25.0 mg/kg/injection, schedule: Q01DX009 (ip), vehicle: saline with Tween-80
[15] = dose: 50.0 mg/kg/injection, schedule: Q01DX009 (ip), vehicle: saline with Tween-80
[16] = dose: 100.0 mg/kg/injection, schedule: Q01DX001 (ip), vehicle: saline with Tween-80
[17] = dose: 200.0 mg/kg/injection, schedule: Q01DX001 (ip), vehicle: saline with Tween-80
[18] = dose: 400.0 mg/kg/injection, schedule: Q01DX001 (ip), vehicle: saline with Tween-80
[19] = dose: 12.5 mg/kg/injection, schedule: Q01DX009 (ip), vehicle: saline with Tween-80
[20] = dose: 50.0 mg/kg/injection, schedule: Q01DX005 (ip), vehicle: Klucel (hydroxypropylcellulose) (HPC)
[21] = dose: 100.0 mg/kg/injection, schedule: Q01DX005 (ip), vehicle: Klucel (hydroxypropylcellulose) (HPC)
[22] = dose: 200.0 mg/kg/injection, schedule: Q01DX005 (ip), vehicle: Klucel (hydroxypropylcellulose) (HPC)

Measured: T/C

CC(CN=C(CC(=O)c1ccc(Br)cc1)c1ccccc1)N=C(CC(=O)c1ccc(Br)cc1)c1ccccc1 (centres undefined)
inactive: dose: 100.0 mg/kg/injection, schedule: Q04DX003 (ip), vehicle: saline with Tween-80 90 % of control | dose: 200.0 mg/kg/injection, schedule: Q04DX003 (ip), vehicle: saline with Tween-80 87 % of control | dose: 400.0 mg/kg/injection, schedule: Q04DX003 (ip), vehicle: saline with Tween-80 87 % of control

O=C1C2=C(Nc3ccccc3N2)OC1c1ccccc1Cl (centres undefined)
inactive: [1] 97 % of control | [2] 97 % of control

CN(C)CCOc1ccccn1
inactive: [3] 98 % of control | [4] 101 % of control

N#CC(C(=O)C(=O)Nc1cccc(Cl)c1)c1ccccc1 (centres undefined)
inactive: [5] 109 % of control | [6] 104 % of control | [7] 99 % of control

CC1C(O)[C@@]2(OC[C@@]34C(=O)CC5(O)[C@H](CCC6Cc7nc8c(nc7C[C@]65C)CC5CC[C@@H]6C7=C[C@H]9O[C@@]%10(O[C@@](C)(CO)C[C@@H]%10O)C(C)[C@@]9(O)[C@]7(C)[C@@H](O)CC6[C@]5(C)C8)C3=CC[C@H]4C2C)OC1(C)C (some centres undefined)
inactive: dose: 10.0 micrograms/kg/injection, schedule: Q01DX005 (ip), vehicle: saline + alcohol 117 % of control and 121 % of control | dose: 20.0 micrograms/kg/injection, schedule: Q01DX005 (ip), vehicle: saline + alcohol 115 % of control and 117 % of control | dose: 40.0 micrograms/kg/injection, schedule: Q01DX005 (ip), vehicle: saline + alcohol 123 % of control and 124 % of control | dose: 40.0 micrograms/kg/injection, schedule: Q01DX009 (ip), vehicle: saline + alcohol 115 % of control

O=c1oc2nc(-c3ccccc3)[nH]c(=O)c2c(O)c1-c1ccccc1
inactive: [1] 96 % of control | [2] 96 % of control

C/C=C/c1nn(-c2ccccc2)c2c1C(=O)CC(C)O2 (centres undefined)
inactive: [8] 96 % of control | [9] 95 % of control | [10] 96 % of control

CSC(N)=Nc1cccc2c1CCCC2
inactive: dose: 25.0 mg/kg/injection, schedule: Q01DX009 (ip), vehicle: saline 100 % of control | [3] 100 % of control | [4] 95 % of control

O=C(O)CCOCCCOCCC(=O)O
inactive: [11] 95 % of control | [12] 98 % of control | [13] 100 % of control

O=C(SCN1CCCCC1)c1ccccc1
inactive: [14] 100 % of control | [15] 113 % of control | dose: 100.0 mg/kg/injection, schedule: Q01DX009 (ip), vehicle: saline with Tween-80 109 % of control

CCOC(=O)N1C2CCC1C(C)C(=O)C2 (centres undefined)
inactive: [11] 96 % of control | [12] 96 % of control and 104 % of control | [13] 94 % of control

CCOP(=O)(OCC)/C(C#N)=C\c1ccc(N(C)C)cc1
inactive: [16] 100 % of control | [17] 104 % of control | [18] 100 % of control

C=C[C@H](c1ccccc1O)c1cc(O)c(OC)cc1OC
inactive: dose: 31.0 mg/kg/injection, schedule: Q01DX005 (ip), vehicle: Klucel (hydroxypropylcellulose) (HPC) 103 % of control | dose: 62.0 mg/kg/injection, schedule: Q01DX005 (ip), vehicle: Klucel (hydroxypropylcellulose) (HPC) 103 % of control | dose: 124.0 mg/kg/injection, schedule: Q01DX005 (ip), vehicle: Klucel (hydroxypropylcellulose) (HPC) 93 % of control | dose: 248.0 mg/kg/injection, schedule: Q01DX005 (ip), vehicle: Klucel (hydroxypropylcellulose) (HPC) 94 % of control

Nc1ncc(CCCOc2ccccc2)c(=O)[nH]1
inactive: [16] 90 % of control | [17] 90 % of control | [18] 90 % of control

CC[CH](C)[Sn](=[O])[CH](C)CC (centres undefined)
inactive: dose: 0.78 mg/kg/injection, schedule: Q01DX009 (ip), vehicle: saline 97 % of control | dose: 1.56 mg/kg/injection, schedule: Q01DX009 (ip), vehicle: saline 105 % of control | dose: 3.12 mg/kg/injection, schedule: Q01DX009 (ip), vehicle: saline 113 % of control

Cc1nc(C#N)c(=N)n(O)c1Cl
inactive: dose: 6.25 mg/kg/injection, schedule: Q01DX009 (ip), vehicle: saline with Tween-80 99 % of control and 102 % of control and 123 % of control | [19] 104 % of control and 106 % of control | [14] 110 % of control and 113 % of control

CC[C@]1(O)Cc2c(O)c3c(c(O)c2[C@@H](OC2CC(N)C(O)C(C)O2)C1)C(=O)c1c(OC)cccc1C3=O (some centres undefined)
inactive: dose: 1.2 mg/kg/injection, schedule: Q04DX003 (ip), vehicle: water 117 % of control | dose: 2.4 mg/kg/injection, schedule: Q04DX003 (ip), vehicle: water 119 % of control | dose: 6.25 mg/kg/injection, schedule: Q01DX009 (ip), vehicle: water 95 % of control | dose: 37.5 mg/kg/injection, schedule: Q04DX003 (ip), vehicle: water 103 % of control
active: dose: 1.56 mg/kg/injection, schedule: Q01DX009 (ip), vehicle: water 151 % of control and 169 % of control | dose: 3.13 mg/kg/injection, schedule: Q01DX009 (ip), vehicle: water 156 % of control and 163 % of control

O=C(O/N=C1\C2CCC(C2)C1Cl)c1ccc([N+](=O)[O-])cc1 (centres undefined)
inactive: [19] 118 % of control | [14] 122 % of control | [15] 104 % of control

N#CCS(=O)CC(N)C(=O)O (centres undefined)
inactive: [5] 102 % of control | [6] 101 % of control | [7] 100 % of control

COc1ccc(/C=C/c2ccc3ccccc3[n+]2C)cc1
inactive: dose: 11.0 mg/kg/injection, schedule: Q01DX009 (ip), vehicle: saline with Tween-80 122 % of control | [19] 124 % of control | [14] 122 % of control

O=P(O)(O)SP(=O)(O)O.[Ni]
inactive: dose: 12.5 mg/kg/injection, schedule: Q01DX001 (ip), vehicle: suspension in saline 102 % of control and 94 % of control | dose: 25.0 mg/kg/injection, schedule: Q01DX001 (ip), vehicle: suspension in saline 99 % of control and 94 % of control | dose: 50.0 mg/kg/injection, schedule: Q01DX001 (ip), vehicle: suspension in saline 122 % of control

COc1ccc(/C=C2/C(=O)ON=C2C)cc1OC
inactive: [8] 99 % of control | [9] 96 % of control | [10] 96 % of control

C=C1CCC2C(C)(CO)C(O)CCC2(C)C1C/C=C1\C(=O)OCC1O (centres undefined)
inactive: dose: 25.0 mg/kg/injection, schedule: Q01DX005 (ip), vehicle: Klucel (hydroxypropylcellulose) (HPC) 109 % of control | [20] 108 % of control | [21] 114 % of control | [22] 117 % of control

COc1cc2c(cc1C1CCCCCc3c1[nH]c1ccccc31)C1CCCCC1N2C (centres undefined)
inactive: dose: 12.5 mg/kg/injection, schedule: Q01DX001 (ip), vehicle: distilled water + Tween-80 100 % of control | dose: 25.0 mg/kg/injection, schedule: Q01DX001 (ip), vehicle: distilled water + Tween-80 100 % of control | dose: 50.0 mg/kg/injection, schedule: Q01DX001 (ip), vehicle: distilled water + Tween-80 100 % of control | dose: 100.0 mg/kg/injection, schedule: Q01DX001 (ip), vehicle: distilled water + Tween-80 95 % of control | dose: 200.0 mg/kg/injection, schedule: Q01DX001 (ip), vehicle: distilled water + Tween-80 91 % of control

N#Cc1c(-c2ccccc2)nc2n1CCS2
inactive: dose: 100.0 mg/kg/injection, schedule: Q01DX001 (ip), vehicle: Klucel (hydroxypropylcellulose) (HPC) 102 % of control | dose: 200.0 mg/kg/injection, schedule: Q01DX001 (ip), vehicle: Klucel (hydroxypropylcellulose) (HPC) 100 % of control | dose: 400.0 mg/kg/injection, schedule: Q01DX001 (ip), vehicle: Klucel (hydroxypropylcellulose) (HPC) 100 % of control

CCOP(=S)(N/N=C/c1ccc(Cl)s1)OCC
inactive: [20] 115 % of control | [21] 110 % of control | [22] 114 % of control

O=C(O)/C=C/c1c(-c2ccccc2)sc2ccccc2c1=O
inactive: dose: 100.0 mg/kg/injection, schedule: Q04DX002 (ip), vehicle: saline with Tween-80 93 % of control | dose: 200.0 mg/kg/injection, schedule: Q04DX002 (ip), vehicle: saline with Tween-80 97 % of control | dose: 400.0 mg/kg/injection, schedule: Q04DX002 (ip), vehicle: saline with Tween-80 97 % of control

CC1N=C(SCc2c(F)cccc2Cl)N2C(C)N=C(SCc3c(F)cccc3Cl)N12 (centres undefined)
inactive: [5] 96 % of control | [6] 96 % of control | [7] 93 % of control

Source: PubChem BioAssay AID330 (DTP/NCI, 2004)
